Assay results: ChEMBL document CHEMBL4364250, “Improvement of Asparagine Ethylenediamines as Anti-malarial Plasmodium-Selective Proteasome Inhibitors” (J Med Chem, 2019)
The source made the active and inactive calls. No cut-off for these calls is given here.

Key:
[1] = (§1) Inhibition of Plasmodium falciparum 20S proteasome beta5 subunit using suc-LLVY-AMC as substrate in presence of beta2 inhibitor WLW-VS
[2] = test system: Plasmodium falciparum; assay: as §1
[3] = biological target: T1, Proteasome Macropain subunit MB1 (Homo sapiens, UniProt P28074); assay: Inhibition of human beta5 20S constitutive proteasome using suc-LLVY-AMC as substrate; settings: for inhibition (INH): human
T1 sequence (P28074 whole entry): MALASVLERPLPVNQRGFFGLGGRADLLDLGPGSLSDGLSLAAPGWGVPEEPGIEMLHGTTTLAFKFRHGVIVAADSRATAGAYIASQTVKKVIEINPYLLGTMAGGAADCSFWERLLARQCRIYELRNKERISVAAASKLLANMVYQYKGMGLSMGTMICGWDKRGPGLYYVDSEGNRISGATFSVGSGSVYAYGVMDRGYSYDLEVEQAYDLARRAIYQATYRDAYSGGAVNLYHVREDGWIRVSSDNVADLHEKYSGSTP

[4] = biological target: T2, Proteasome subunit beta type-8 (Homo sapiens, UniProt P28062); assay: Inhibition of human beta5 20S immunoproteasome using Ac-ANW-AMC as substrate; settings: for inhibition (INH): human
T2 sequence (P28062 whole entry): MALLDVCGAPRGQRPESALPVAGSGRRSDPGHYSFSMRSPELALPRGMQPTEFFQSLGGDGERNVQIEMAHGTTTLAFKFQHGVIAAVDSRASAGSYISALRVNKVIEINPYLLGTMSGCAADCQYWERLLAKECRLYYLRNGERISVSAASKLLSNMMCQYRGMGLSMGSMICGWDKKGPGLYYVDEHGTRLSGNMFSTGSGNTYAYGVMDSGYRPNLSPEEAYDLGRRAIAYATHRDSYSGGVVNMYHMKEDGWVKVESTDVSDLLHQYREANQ

[5] = test system: Plasmodium falciparum; assay: Antimalarial activity against erythrocytic stage of Plasmodium falciparum 3D7 measured after 72 hrs by SYBR green dye based fluorescence assay; format: functional, organism-based; settings: 3D7, 72 h
[6] = test system: beta5 subunit of human 20S constitutive proteasome; assay: Selectivity ratio of IC50 for human beta5 20S constitutive proteasome to IC50 for Plasmodium falciparum 20S proteasome beta5 subunit; format: toxicity; settings: read-out: Ratio IC50
[7] = test system: beta5 subunit of human 20S immunoproteasome; assay: Selectivity ratio of IC50 for human beta5 20S immunoproteasome to IC50 for Plasmodium falciparum 20S proteasome beta5 subunit; format: toxicity; settings: read-out: Ratio IC50
[8] = test system: HepG2; assay: Cytotoxicity against human HepG2 cells; format: cell-based
[9] = test system: Karpas-1106P; assay: Cytotoxicity against human KARPAS1106P cells; format: cell-based
[10] = test system: Plasmodium falciparum; assay: Antimalarial activity against erythrocytic stage of Plasmodium falciparum Dd2 measured after 72 hrs by SYBR green dye based fluorescence assay; format: functional, organism-based; settings: Dd2, 72 h
[11] = test system: Plasmodium falciparum; assay: Antimalarial activity against erythrocytic stage of Plasmodium falciparum Dd2 harboring 20S beta2 proteasome A117D mutant measured after 72 hrs by SYBR green dye based fluorescence assay; format: functional, organism-based; settings: Dd2, 72 h
[12] = test system: Plasmodium falciparum; assay: Antimalarial activity against erythrocytic stage of Plasmodium falciparum Dd2 harboring 20S beta5 proteasome A49S mutant measured after 72 hrs by SYBR green dye based fluorescence assay; format: functional, organism-based; settings: Dd2, 72 h
[13] = test system: Plasmodium falciparum; assay: Resistance index, ratio of EC50 for erythrocytic stage of Plasmodium falciparum Dd2 harboring 20S beta5 proteasome A49S mutant to EC50 erythrocytic stage of Plasmodium falciparum Dd2; format: functional
[14] = test system: Plasmodium falciparum; assay: Resistance index, ratio of EC50 for erythrocytic stage of Plasmodium falciparum Dd2 harboring 20S beta6 proteasome A117D mutant to EC50 erythrocytic stage of Plasmodium falciparum Dd2
[15] = Permeability of the compound at pH 7.4 by PAMPA; format: ADME; settings: read-out: permeability
[16] = Clearance in human liver microsomes; format: ADME, Microsome; settings: read-out: CLH
[17] = Clearance in rat liver microsomes; format: ADME, Microsome; settings: read-out: CLH
[18] = Clearance in mouse liver microsomes; format: ADME, Microsome; settings: read-out: CLH
[19] = test system: Plasmodium falciparum; assay: Inhibition of MV151 binding to Plasmodium falciparum 20S proteasome beta2 subunit preincubated for 1 hr followed by MV151 addition and measured after 1 hr by fluorescence assay
[20] = test system: Plasmodium falciparum; assay: Inhibition of MV151 binding to Plasmodium falciparum 20S proteasome beta1 subunit preincubated for 1 hr followed by MV151 addition and measured after 1 hr by fluorescence assay
[21] = test system: Plasmodium falciparum; assay: Antimalarial activity against erythrocytic stage of Plasmodium falciparum Dd2 measured after 72 hrs in presence of 20S beta2 inhibitor WLW-VS by SYBR green dye based fluorescence assay; format: functional, organism-based
[22] = test system: Plasmodium falciparum; assay: Inhibition of MV151 binding to Plasmodium falciparum 20S proteasome beta5 subunit A49S mutant at 1.2 to 33.3 uM preincubated for 1 hr followed by MV151 addition and measured after 1 hr by fluorescence assay
[23] = test system: Plasmodium falciparum; assay: Inhibition of MV151 binding to Plasmodium falciparum 20S proteasome beta5 subunit preincubated for 1 hr followed by MV151 addition and measured after 1 hr by fluorescence assay
[24] = test system: Plasmodium falciparum; assay: microbe, parasite or virus in culture; settings: 72 h
Description: Antimalarial activity against Plasmodium falciparum clinical isolate measured after 72 hrs by SYBR green dye based fluorescence assay

Row | Compound | IC50 [1] [nM] | IC50 [3] [nM] | IC50 [4] [nM] | EC50 [5] [nM] | selectivity ratio [6] | selectivity ratio [7] | EC50 [8] [nM] | EC50 [9] [nM] | EC50 [10] [nM] | EC50 [11] [nM] | EC50 [12] [nM] | Ratio EC50 [13] | Ratio EC50 [14] | Papp [15] [×10⁻⁶ cm/s] | microsomal CLint [16] [µL/min/mg] | microsomal CLint [17] [µL/min/mg] | microsomal CLint [18] [µL/min/mg] | also measured
1 | Cc1ccc(S(=O)(=O)N[C@@H](CC(=O)NC(C)(C)C)C(=O)NCCNC(=O)c2cc(C)ccc2F)cc1 | 20.7 | 12000 | 384 | 13.9 | 581 | 19 | > 11000 | > 11100 |  |  |  |  |  |  |  |  |  | inhibition [2]: Dose-dependent effect; inhibition (INH) [3]: Dose-dependent effect; inhibition (INH) [4]: Dose-dependent effect
2 | CC(C)C[C@H](NC(=O)[C@H](Cc1ccccc1)NC(=O)c1cnccn1)B(O)O [BORTEZOMIB] |  |  |  |  |  |  |  |  | 419 | 106 | 1020 | 2.4 | 0.25 |  |  |  |  | 
3 | CC(C)C[C@@H](/C=C/S(C)(=O)=O)NC(=O)[C@H](CC(C)C)NC(=O)[C@H](Cc1c[nH]c2ccccc12)NC(=O)CN1CCOCC1 |  |  |  |  |  |  |  |  | 91.6 | 7.3 | 26 | 0.28 | 0.08 |  |  |  |  | 
4 | Cc1cc(C(=O)N[C@@H](CC(=O)NC(C)(C)C)C(=O)NCCNC(=O)c2cccc(-n3cccn3)c2)no1 |  |  |  |  |  |  |  |  | 27.6 | 279 | > 2770 | >100 | 10 |  |  |  |  | 
5 | COc1cccc(C(=O)NCCNC(=O)[C@H](CC(=O)NC(C)(C)C)NS(=O)(=O)c2ccc(C)cc2)c1 | 8.9 | 506 | 38 | 2.3 | 57 | 4.3 | > 11000 | > 11100 | 2.5 | 63.4 | 252 | 101 | 25 | 15.9 | 202 | 115 | 142 | 
6 | Cc1ccc(S(=O)(=O)N[C@@H](CC(=O)NC(C)(C)C)C(=O)NCCNC(=O)c2ccccc2F)cc1 | 32 | 1140 | 169 | 7.5 | 36 | 5.3 | > 11000 | > 11100 |  |  |  |  |  | 10.5 | 141 | 124 | 141 | inhibition [19]: inactive; inhibition [20]: inactive
7 | Cc1ccc(S(=O)(=O)N[C@@H](CC(=O)NC(C)(C)C)C(=O)NCCNC(=O)c2cc(-c3ccccc3F)ccc2F)cc1 |  | 110 | 4 | 1.6 |  |  |  |  |  |  |  |  |  |  |  |  |  | inhibition [19]: inactive; inhibition [20]: inactive
8 | CC(C)(C)NC(=O)C[C@H](NC(=O)CCc1ccccc1)C(=O)NCCNC(=O)c1cccc(-c2ccccc2)c1 |  |  |  |  |  |  |  |  | 2.5 | 326 | 1350 | 541 | 130 |  |  |  |  | 
9 | Cc1ccc(S(=O)(=O)N[C@@H](CC(=O)NC(C)(C)C)C(=O)NCCNC(=O)c2ccccc2)cc1 | 20.8 | 1410 | 100 | 8.4 | 68 | 4.8 | > 11000 | > 11100 | 7.7 | 111 | 135 | 17 | 14 | 13.7 | 122 | 66 | 64 | Activity [21]: Active; inhibition [22]: Active
10 | C#Cc1cccc(C(=O)NCCNC(=O)[C@H](CC(=O)NC(C)(C)C)NS(=O)(=O)c2ccc(C)cc2)c1 | 4.7 | 430 | 112 | 3.1 | 91 | 24 | > 11000 | > 11100 | 3.3 | 61.9 | 502 | 152 | 19 | 20.3 | 61 | 61 | 97 | inhibition [2]: Dose-dependent effect; inhibition (INH) [3]: Dose-dependent effect; inhibition (INH) [4]: Dose-dependent effect; inhibition [23]: Dose-dependent effect; EC50 [24]: 7.1 nM
11 | Cc1ccc(S(=O)(=O)N[C@@H](CC(=O)NC(C)(C)C)C(=O)NCCNC(=O)c2ccc(Cl)cc2)cc1 | 113 | 5000 | 38 | 130 | 44 | 0.3 | > 11000 | > 11100 |  |  |  |  |  |  |  |  |  | 
12 | Cc1ccc(S(=O)(=O)N[C@@H](CC(=O)NC(C)(C)C)C(=O)NCCNC(=O)c2ccc(F)cc2)cc1 | 121 | 6700 | 179 | 50.9 | 55 | 1.5 | > 11000 | > 11100 |  |  |  |  |  |  | 149 | 81 | 49 | 
